Values quoted from earlier work as cited in paper PMC8050614 (Journal of bone and mineral research : the official journal …, 2019).

How the values were obtained:
young wild-type mice = conditions: 8 weeks of treatment
wild-type mice = conditions: injection at 50 nmol/kg

## NCCCC(O)(P(=O)(O)O)P(=O)(O)O [alendronate]
Young wild-type mice
  osteoclast size and/or number: increase
  serum CTX1: decrease

## hPTH(1–34)NH2
wild-type mice
  hypercalcemic response: frank hypercalcemic response
